Reference: PubChem BioAssay AID624460 (Sanford-Burnham Center for Chemical Genomics, 2012)
Values joined by “and” are separate entries in the source; they are usually repeats but may differ in a detail not shown here. Equal values may be shown once. Active and inactive are the calls of the source.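 The calls were made as follows: active = protection of heart cells from peroxide damage with half-maximal concentration of 20 µM or lower (some results past the limit were not filed as active); inactive = the rest.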

The molecules below were run on HL-1 cardiomyocytes, H2O2 injury, ATPLite viability, 2 h (assay: cardiomyocyte survival under H2O2 injury – HL-1 cells, peroxide, set 2, SAR follow-up (AID 624460)).
With `COc1ccc2c(c1OC)C(=O)N1c3ccccc3C(=O)N(Cc3cccc(Cl)c3)C21` (stereo not drawn) the EC50 was > 79 µM (inactive).
For `COc1cc(-c2cc(C(=O)Nc3cccc(C)c3)c3ccccc3n2)cc(OC)c1OC`, the EC50 was > 79 µM (inactive).
With `COc1ccc2c(c1OC)C(=O)N1c3ccccc3C(=O)N(c3ccc(Br)cc3)C21` (stereo not drawn) the EC50 was > 79 µM (inactive).
For `COc1ccc2c(c1OC)C(=O)N1c3ccccc3C(=O)N(c3cccc(F)c3)C21` (stereo not drawn), the EC50 was 34.7 µM (inactive).
For `COc1ccc(-c2cc(C(=O)Nc3cccc(C(C)=O)c3)c3ccccc3n2)cc1OC`, the EC50 was > 79 µM (inactive).
With `COc1ccc2c(c1OC)C(=O)N1c3ccccc3C(=O)N(c3ccc(C)cc3)C21` (stereo not drawn) the EC50 was > 79 µM (inactive).
With `COc1cc(-c2cc(C(=O)Nc3cccc(C(C)=O)c3)c3ccccc3n2)cc(OC)c1OC` the EC50 was 1.47 µM and 8.54 µM.
`CCN(CC(=O)Nc1ccccc1)C(=O)c1cc(-c2cccs2)nn1-c1ccccc1` was tested, and the EC50 was > 79 µM (inactive).
With `COc1cccc(CNC(=O)c2cc(-c3ccc(OC)c(OC)c3)nc3ccccc23)c1` the EC50 was 10.6 µM (inactive).
With `COc1cc(-c2cc(C(=O)Nc3ccccc3)c3ccccc3n2)cc(OC)c1OC` the EC50 was > 79 µM (inactive).
`COc1ccc(-c2cc(C(=O)Nc3cccc(C(C)=O)c3)c3ccccc3n2)cc1` was tested, and the EC50 was > 79 µM (inactive).
`COc1cc(-c2cc(C(=O)Nc3cccc(Cl)c3)c3ccccc3n2)cc(OC)c1OC` was tested, and the EC50 was > 79 µM (inactive).
`COc1cccc(-c2cc(C(=O)Nc3cccc(C(C)=O)c3)c3ccccc3n2)c1` was tested, and the EC50 was > 79 µM (inactive).
In the case of `COc1cccc(CNC(=O)c2cc(-c3cc(OC)c(OC)c(OC)c3)nc3ccccc23)c1`, the EC50 is reported as 10.7 µM (inactive).
In the case of `O=C1c2ccccc2N2C(=O)c3ccccc3C2N1c1ccccc1` (stereo not drawn), the EC50 is reported as > 79 µM (inactive).
`COc1cc(-c2cc(C(=O)Nc3cccc(C(F)(F)F)c3)c3ccccc3n2)cc(OC)c1OC` was tested, and the EC50 was > 79 µM (inactive).
`COc1ccc(NC(=O)c2cc(-c3cc(OC)c(OC)c(OC)c3)nc3ccccc23)cc1` was tested, and the EC50 was 10.2 µM (inactive).
With `COc1ccc2c(c1OC)C(=O)N1c3ccccc3C(=O)N(c3ccccc3)C21` (stereo not drawn) the EC50 was > 79 µM (inactive).
`CC(=O)c1cccc(NC(=O)c2cc(-c3ccccc3)nc3ccccc23)c1` was tested, and the EC50 was > 79 µM (inactive).
For `COc1cccc(N2C(=O)c3ccccc3N3C(=O)c4c(ccc(OC)c4OC)C23)c1` (stereo not drawn), the EC50 was > 79 µM (inactive).
With `COc1ccc2c(c1OC)C(=O)N1c3ccccc3C(=O)N(Cc3ccccc3Cl)C21` (stereo not drawn) the EC50 was > 79 µM (inactive).
Molecule `COc1cc(-c2cc(C(=O)Nc3ccc(C(C)=O)cc3)c3ccccc3n2)cc(OC)c1OC` has an EC50 of 9.93 µM.
In the case of `CCN(CC(=O)Nc1ccc(C)cc1)C(=O)c1cc(-c2cccs2)nn1-c1ccccc1`, the EC50 is reported as > 79 µM (inactive).
With `O=C1c2ccccc2N2C(=O)c3ccccc3C2N1c1cccc(Br)c1` (stereo not drawn) the EC50 was > 79 µM (inactive).
`COc1ccc2c(c1OC)C(=O)N1c3ccccc3C(=O)N(c3cccc(Cl)c3)C21` (stereo not drawn) was tested, and the EC50 was > 79 µM (inactive).
With `CCN(CC(=O)Nc1ccc(OC)cc1)C(=O)c1cc(-c2cc(OC)c(OC)c(OC)c2)nc2ccccc12` the EC50 was 9.39 µM.
`COc1cccc(N2C(=O)c3ccccc3N3C(=O)c4ccccc4C23)c1` (stereo not drawn) was tested, and the EC50 was > 79 µM (inactive).
With `COc1ccc2c(c1OC)C(=O)N1c3ccccc3C(=O)N(c3cccc(C)c3)C21` (stereo not drawn) the EC50 was 60.3 µM (inactive).
In the case of `COc1ccc(N2C(=O)c3ccccc3N3C(=O)c4c(ccc(OC)c4OC)C23)cc1` (stereo not drawn), the EC50 is reported as 23.5 µM (inactive).
With `CCOC(=O)c1cccc(NC(=O)c2cc(-c3cc(OC)c(OC)c(OC)c3)nc3ccccc23)c1` the EC50 was 3.15 µM.
In the case of `COc1ccc2c(c1OC)C(=O)N1c3ccccc3C(=O)N(c3cccc(C(F)(F)F)c3)C21` (stereo not drawn), the EC50 is reported as > 79 µM (inactive).
For `COc1ccc2c(c1OC)C(=O)N1c3ccccc3C(=O)N(c3ccc(C(C)(C)C)cc3)C21` (stereo not drawn), the EC50 was > 79 µM (inactive).
Work on `COc1cc(-c2cc(C(=O)Nc3cccc(C(C)=O)c3)c3cc(Cl)ccc3n2)cc(OC)c1OC` yielded an EC50 of 3.26 µM.
For `COc1cc(-c2cc(C(=O)Nc3cccc(F)c3)c3ccccc3n2)cc(OC)c1OC`, the EC50 was 16.4 µM (inactive).
With `CCN(CC(=O)Nc1ccc(F)cc1)C(=O)c1cc(-c2cccs2)nn1-c1ccccc1` the EC50 was > 79 µM (inactive).
In the case of `COc1ccc2c(c1OC)C(=O)N1c3ccccc3C(=O)N(c3cccc(Br)c3)C21` (stereo not drawn), the EC50 is reported as 3.29 µM and > 79 µM (inactive).
Molecule `COc1cccc(NC(=O)c2cc(-c3cc(OC)c(OC)c(OC)c3)nc3ccccc23)c1` has an EC50 of 9.39 µM.
For `CCN(CC(=O)Nc1ccc(OC)cc1)C(=O)c1cc(-c2cccs2)nn1-c1ccccc1`, the EC50 was 70.2 µM (inactive) and > 79 µM (inactive).
